# Results: patent US4684664A, “Derivatives of β-(4-isocyano-1,2,3,4-diepoxycyclopentyl) acrylic acid” (Kureha Kagaku Kogyo Kabushiki Kaisha, priority 1984, dated 1987)
# What was measured:
# Type in all cases: cell-based
# [1] = system: Streptococcus faecium IFO 3826; assay: Antibacterial activity, agar-dilution MIC, organism No. 27; details: Enterococcus faecium, IFO3826; Organism No. 27, bouillon-agar; read-out: Minimum Inhibitory Concentration
# Method in brief: (§1)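 Testing uses agar dilution in bouillon agar. MIC = lowest inhibiting concentration, μg/ml medium.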
# [2] = system: Pseudomonas aeruginosa NCTC 10490; assay: Antibacterial activity, agar-dilution MIC, organism No. 16; details: Pseudomonas aeruginosa, NCTC10490; Organism No. 16, bouillon-agar; read-out: Minimum Inhibitory Concentration
# Method in brief: as §1
# [3] = system: Staphylococcus aureus MS 353; assay: Antibacterial activity, agar-dilution MIC, organism No. 3; details: Staphylococcus aureus, MS353; Organism No. 3, bouillon-agar; read-out: Minimum Inhibitory Concentration
# Method in brief: as §1
# [4] = system: Salmonella typhimurium IID 971; assay: Antibacterial activity, agar-dilution MIC, organism No. 8; details: Salmonella enterica; Organism No. 8, bouillon-agar; read-out: Minimum Inhibitory Concentration
# Method in brief: as §1
# [5] = system: Staphylococcus aureus Terajima; assay: Antibacterial activity, agar-dilution MIC, organism No. 2; details: Staphylococcus aureus; Organism No. 2, bouillon-agar; read-out: Minimum Inhibitory Concentration
# Method in brief: as §1
# Proteus vulgaris HX-19 = assay: Antibacterial activity, agar-dilution MIC, organism No. 21; details: Proteus vulgaris, HX19; Organism No. 21, bouillon-agar; read-out: Minimum Inhibitory Concentration
# Method in brief: as §1
# [6] = system: Salmonella shottmuelleri 8006; assay: Antibacterial activity, agar-dilution MIC, organism No. 11; details: Salmonella, 8006; Organism No. 11, bouillon-agar; read-out: Minimum Inhibitory Concentration
# Method in brief: as §1
# [7] = system: Mycoplasma pneumoniae IID817; assay: Antimycoplasmal activity, MIC by phenol red colour change, organism No. 28; details: Mycoplasma, IID817; Organism No. 28, PPLO broth + 1% glucose, 37° C.; read-out: Minimum Inhibitory Concentration (MIC)
# Method: Mycoplasma pneumoniae IID817 was used as the test microorganism in a culture medium prepared by adding 1% of glucose to "PPLO broth (manufactured by Difco Co.) liquid culture medium" at 37° C. with phenol red as an indicator, thereby culturing the test microorganism.
# [8] = system: Serratia marcescens IAM 1184; assay: Antibacterial activity, agar-dilution MIC, organism No. 13; details: Serratia marcescens, IAM1184; Organism No. 13, bouillon-agar; read-out: Minimum Inhibitory Concentration
# Method in brief: as §1
# Salmonella typhi 901 = assay: Antibacterial activity, agar-dilution MIC, organism No. 9; details: Salmonella enterica, TYPHI, read-out: Minimum Inhibitory Concentration
# Method in brief: as §1
# [9] = system: Staphylococcus aureus FDA 209PJc-1; assay: Antibacterial activity, agar-dilution MIC, organism No. 1; details: Staphylococcus aureus, FDA209PJC1; Organism No. 1, bouillon-agar; read-out: Minimum Inhibitory Concentration
# Method in brief: as §1
# Proteus vulgaris OX-19 = assay: Antibacterial activity, agar-dilution MIC, organism No. 20; details: Proteus vulgaris, OX19; Organism No. 20, bouillon-agar; read-out: Minimum Inhibitory Concentration
# Method in brief: as §1
# [10] = system: Pseudomonas aeruginosa PAO 1; assay: Antibacterial activity, agar-dilution MIC, organism No. 17; details: Pseudomonas aeruginosa, PAO1; Organism No. 17, bouillon-agar; read-out: Minimum Inhibitory Concentration
# Method in brief: as §1
# [11] = system: Escherichia coli K12 C600 IAM 1264; assay: Antibacterial activity, agar-dilution MIC, organism No. 6; details: Escherichia coli, IAM1264; Organism No. 6, bouillon-agar; read-out: Minimum Inhibitory Concentration
# Method in brief: as §1
# [12] = system: Proteus rettgeri IFO 3850; assay: Antibacterial activity, agar-dilution MIC, organism No. 22; details: Providencia rettgeri, IFO3850; Organism No. 22, bouillon-agar; read-out: Minimum Inhibitory Concentration
# Method in brief: as §1
# [13] = system: Micrococcus luteus ATCC 9341; assay: Antibacterial activity, agar-dilution MIC, organism No. 25; details: Micrococcus luteus, ATCC9341; Organism No. 25, bouillon-agar; read-out: Minimum Inhibitory Concentration
# Method in brief: as §1
# [14] = system: Streptococcus pyogenes Cook; assay: Antibacterial activity, agar-dilution MIC, organism No. 4; details: Streptococcus pyogenes; Organism No. 4, bouillon-agar; read-out: Minimum Inhibitory Concentration
# Method in brief: as §1
# [15] = system: Escherichia coli NIHJ-JC-2; assay: Antibacterial activity, agar-dilution MIC, organism No. 5; details: Escherichia coli, NIHJJC2; Organism No. 5, bouillon-agar; read-out: Minimum Inhibitory Concentration
# Method in brief: as §1
# [16] = system: Salmonella enteritidis G 14; assay: Antibacterial activity, agar-dilution MIC, organism No. 12; details: Salmonella enterica, ENTERITIDIS; Organism No. 12, bouillon-agar; read-out: Minimum Inhibitory Concentration
# Method in brief: as §1
# [17] = system: Aspergillus niger IFO 6342; assay: Antifungal activity, agar-dilution MIC, organism No. 30; details: Aspergillus niger, IFO6342; Organism No. 30, bouillon-agar; read-out: Minimum Inhibitory Concentration
# Method in brief: as §1
# [18] = system: Bacillus subtilis ATCC 6633; assay: Antibacterial activity, agar-dilution MIC, organism No. 14; details: Bacillus subtilis, ATCC6633; Organism No. 14, bouillon-agar; read-out: Minimum Inhibitory Concentration
# Method in brief: as §1
# [19] = system: Proteus mirabilis IFO 3849; assay: Antibacterial activity, agar-dilution MIC, organism No. 19; details: Proteus mirabilis, IFO3849; Organism No. 19, bouillon-agar; read-out: Minimum Inhibitory Concentration
# Method in brief: as §1
# [20] = system: Pseudomonas aeruginosa IFO 3445; assay: Antibacterial activity, agar-dilution MIC, organism No. 15; details: Pseudomonas aeruginosa, IFO3445; Organism No. 15, bouillon-agar; read-out: Minimum Inhibitory Concentration
# Method in brief: as §1
# [21] = system: Proteus morganii IFO 3848; assay: Antibacterial activity, agar-dilution MIC, organism No. 18; details: Morganella morganii, IFO3848; Organism No. 18, bouillon-agar; read-out: Minimum Inhibitory Concentration
# Method in brief: as §1
# [22] = system: Streptococcus pyogenes IFO 3340; assay: Antibacterial activity, agar-dilution MIC, organism No. 26; details: Streptococcus pyogenes, IFO3340; Organism No. 26, bouillon-agar; read-out: Minimum Inhibitory Concentration
# Method in brief: as §1
# Enterobacter cloacae 963 = assay: Antibacterial activity, agar-dilution MIC, organism No. 24; details: Enterobacter cloacae, 963; Organism No. 24, bouillon-agar; read-out: Minimum Inhibitory Concentration
# Method in brief: as §1
# [23] = system: Salmonella paratyphi-A 1015; assay: Antibacterial activity, agar-dilution MIC, organism No. 10; details: Salmonella enterica, PARATYPHI, read-out: Minimum Inhibitory Concentration
# Method in brief: as §1
# [24] = system: Candida albicans IAM 4905; assay: Antifungal activity, agar-dilution MIC, organism No. 29; details: Candida albicans, IAM4905; Organism No. 29, bouillon-agar; read-out: Minimum Inhibitory Concentration
# Method in brief: as §1
# [25] = system: Klebsiella pneumoniae PCI-602; assay: Antibacterial activity, agar-dilution MIC, organism No. 7; details: Klebsiella pneumoniae, PCI602; Organism No. 7, bouillon-agar; read-out: Minimum Inhibitory Concentration
# Method in brief: as §1
# [26] = system: Enterobacter aerogenes ATCC 13048; assay: Antibacterial activity, agar-dilution MIC, organism No. 23; details: Klebsiella aerogenes, ATCC13048; Organism No. 23, bouillon-agar; read-out: Minimum Inhibitory Concentration
# Method in brief: as §1
Structure (SMILES),MIC [1] [µg/mL],MIC [2] [µg/mL],MIC [3] [µg/mL],MIC [4] [µg/mL],MIC [5] [µg/mL],MIC (Proteus vulgaris HX-19) [µg/mL],MIC [6] [µg/mL],MIC [7] [µg/mL],MIC [8] [µg/mL],MIC (Salmonella typhi 901) [µg/mL],MIC [9] [µg/mL],MIC (Proteus vulgaris OX-19) [µg/mL],MIC [10] [µg/mL],MIC [11] [µg/mL],MIC [12] [µg/mL],MIC [13] [µg/mL],MIC [14] [µg/mL],MIC [15] [µg/mL],MIC [16] [µg/mL],MIC [17] [µg/mL],also measured
[C-]#[N+]C12CC3(/C=C/C(=O)Nc4ccc(C(C)=O)cc4)OC3C1O2 (stereo not drawn) [compound 80],1.56,> 200,0.78,100,1.56,1.56,3.13,< 0.2,> 200,12.5,0.39,1.56,> 200,> 200,> 200,> 200,6.25,> 200,12.5,3.13,MIC [18]: 6.25 µg/mL; MIC [19]: > 200 µg/mL; MIC [20]: > 200 µg/mL; MIC [21]: 6.25 µg/mL; MIC [22]: 3.13 µg/mL; MIC (Enterobacter cloacae 963): > 200 µg/mL; MIC [23]: 3.13 µg/mL; MIC [24]: 0.39 µg/mL; MIC [25]: 1.56 µg/mL; MIC [26]: > 200 µg/mL
[C-]#[N+]C12CC3(/C=C/C(=O)NOC)OC3C1O2 (stereo not drawn) [compound 81],12.5,200,12.5,12.5,25,6.25,12.5,< 0.2,200,6.25,25,50,> 200,12.5,100,100,25,12.5,6.25,6.25,MIC [18]: 50 µg/mL; MIC [19]: 100 µg/mL; MIC [20]: 200 µg/mL; MIC [21]: 25 µg/mL; MIC [22]: 6.25 µg/mL; MIC (Enterobacter cloacae 963): > 200 µg/mL; MIC [23]: 6.25 µg/mL; MIC [24]: 12.5 µg/mL; MIC [25]: 200 µg/mL; MIC [26]: > 200 µg/mL
[C-]#[N+]C12CC3(/C=C/C(=O)NOCc4ccccc4)OC3C1O2 (stereo not drawn) [compound 82],1.56,> 200,< 0.05,6.25,0.2,0.1,0.78,< 0.2,> 200,0.78,< 0.05,0.2,> 200,12.5,> 200,12.5,0.78,12.5,0.78,3.13,MIC [18]: 6.25 µg/mL; MIC [19]: > 200 µg/mL; MIC [20]: > 200 µg/mL; MIC [21]: 0.78 µg/mL; MIC [22]: 1.56 µg/mL; MIC (Enterobacter cloacae 963): > 200 µg/mL; MIC [23]: 0.78 µg/mL; MIC [24]: 0.39 µg/mL; MIC [25]: 0.39 µg/mL; MIC [26]: > 200 µg/mL
